pKi: −log10 of the molar value.
Each compound was assayed against T1, glucocorticoid receptor (Homo sapiens, UniProt P04150) (assay: Ligand binding assay (GRBind), 3H-dexamethasone displacement in HeLa cell lysate). Conditions: 3H-DEX tracer.
T1 construct: endogenous in cells; host or cells: HeLa (ATCC) cell lysate supernatant
T1 sequence (P04150 1-777): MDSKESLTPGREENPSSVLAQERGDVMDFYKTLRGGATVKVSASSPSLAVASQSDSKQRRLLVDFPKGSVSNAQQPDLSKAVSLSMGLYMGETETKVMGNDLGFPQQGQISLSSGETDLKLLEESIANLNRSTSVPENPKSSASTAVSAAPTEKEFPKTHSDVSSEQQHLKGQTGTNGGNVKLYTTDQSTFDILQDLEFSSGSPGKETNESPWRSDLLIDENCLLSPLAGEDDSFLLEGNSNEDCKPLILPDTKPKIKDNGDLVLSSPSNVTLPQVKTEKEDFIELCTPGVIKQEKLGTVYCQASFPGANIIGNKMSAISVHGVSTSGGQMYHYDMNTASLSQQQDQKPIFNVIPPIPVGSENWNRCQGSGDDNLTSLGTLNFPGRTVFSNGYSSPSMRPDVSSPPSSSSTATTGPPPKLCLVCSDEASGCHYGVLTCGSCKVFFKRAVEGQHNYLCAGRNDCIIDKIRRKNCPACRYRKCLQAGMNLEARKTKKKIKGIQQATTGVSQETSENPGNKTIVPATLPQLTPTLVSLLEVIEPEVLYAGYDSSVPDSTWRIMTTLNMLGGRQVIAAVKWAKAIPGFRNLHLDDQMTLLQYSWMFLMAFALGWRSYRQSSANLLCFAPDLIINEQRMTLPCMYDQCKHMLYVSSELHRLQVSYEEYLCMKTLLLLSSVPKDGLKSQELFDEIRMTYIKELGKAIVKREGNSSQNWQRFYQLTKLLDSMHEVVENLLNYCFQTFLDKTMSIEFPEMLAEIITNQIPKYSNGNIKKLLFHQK
Method: Binding Buffer: TEGM (10 mM Tris-HCl, 1 mM EDTA, 10% glycerol, 1 mM betamecaptoethanol, 10 mM Sodium Molybdate, pH 7.2)
50% HAP Slurry: Calbiochem Hydroxylapatite, Fast Flow, in 10 mM Tris, pH 8.0 and 1 mM EDTA.
Wash Buffer: 40 mM Tris, pH7.5, 100 mM KCl, 1 mM EDTA and 1 mM EGTA. 95% EtOH Dexmethasone-methyl-3H, (DEXA*); (Amersham cat#TRK645) Dexamethasone(DEX) (Sigma, cat#01756):
Hydroxylapatite Fast Flow; Calbiochem Cat#391947
25 Molybdate=Molybdic Acid (Sigma, M1651)
5 Cells (Hall R. E., et al., European Journal of Cancer, 30A: 484-490 (1994)) HeLa (ATCC) cultured in RPMI 1640 (Gibed 11835-055) containing 20 mM Hepes, 4 mM L-glu, 10 ug/ml of human insulin (Sigma, 1-0259), 10% FBS and 20 uglml of Gentamicin (Gibco#15710072) are rinsed twice in PBS. Phenol red-free Trypsin-EDTA is diluted in the same PBS 1:10. The cell layers are rinsed with IX Trypsin, extra Trypsin is poured out, and the cell layers are incubated at 37° C. for 2 min. The flask is tapped and checked for signs of cell detachment. Once the cells begin to slide off the flask, the complete media is added. The cells are counted at this point, then diluted to the appropriate concentration and split into flasks or dishes for further culturing (Usually 1:3 to 1:6 dilution).
Preparation of HeLa Cell Lysate
When the cells are 70 to 85% confluent, they are detached as described above, and collected by centrifuging at 1000 g for 10 min at 4° C. The cell pellet is washed twice with TEGM (10 mM Tris-HCl, 1 mM EDTA, 10% glycerol, 1 mM beta-mercaptoethanol, 10 mM Sodium Molybdate, pH 7.2). After the final wash, the cells are resuspended in TEGM at a concentration of 10^7 cells/mL. The cell suspension is snap frozen in liquid nitrogen or ethanol/dry ice bath and transferred to −80° C. freezer on dry ice. Before setting up the binding assay, the frozen samples are left on ice-water to just thaw. Then the samples are centrifuged at 12,500 g to 20,000 g for 30 min at 4° C. The supernatant is used to set-up assay right away. If using 50 μL of supernatant, the test compound can be prepared in 50 μL of the TEGM buffer.
Procedure for Multiple Compound Screening
1×TEGM buffer is prepared, and the isotope-containing assay mixture is prepared in the following order: EtOH (2% final concentration in reaction), 3H-DEX (Amersham Biosciences) and 1×TEGM. [e.g. For 100 samples, 200 JlL (100×2) of EtOH+4.25 JlL of 1:10 ^3H-Dex stock+2300 μL (100×23) 1×TEGM]. The compound is serially diluted, e.g., if starting final conc. is 1 μM, and the compound is in 25 μL of solution, for duplicate samples, 75 μL of 4×1 μM solution is made and 3 μL of 100). 1M is added to 72 μL of buffer, and 1:5 serial dilution.
25 μL of ^3H-DEX (6 nM) trace and 25 μL, compound solution are first mixed together, followed by addition of 50 μL receptor solution. The reaction is gently mixed, spun briefly at about 200 rpm and incubated at 4° C. overnight. 100 μL of 50% HAP slurry is prepared and added to the incubated reaction which is then vortexed and incubated on ice for 5 to 10 min. The reaction mixture is vortexed twice more to resuspend HAP while incubating reaction. The samples in 96-well format are then washed in wash buffer using the FilterMate™ Universal Harvester plate washer (Packard). The washing process transfers HAP pellet containing ligand-bound expressed receptor to Unifilter-96 GFIB filter plate (Packard). The HAP pellet on the filter plate is incubated with […] of MICROSCINT (Packard) scintillant for 30 min before being counted on the TopCount microscintillation counter (Packard). IC50s are calculated using DEX as a reference.
`CC[C@]12Cc3cnn(-c4ccc(F)cc4)c3C=C1CC[C@@]2(O)CCc1ccc(F)cn1` [Example 19, (4aS,5R)-4a-Ethyl-1-(4-fluorophenyl)-5-[2-(5-fluoropyridin-2-yl)ethyl]-1,4,4a,5,6,7-hexahydrocyclopenta[f]indazol-5-ol] showed a pKi of 8.60.
`CC[C@]12Cc3cnn(-c4ccccc4)c3C=C1CC[C@@]2(O)CCc1ccccc1C(N)=O` [Example 20, 2-{2-[(4aS,5R)-4a-Ethyl-5-hydroxy-1-phenyl-1,4,4a,5,6,7-hexahydrocyclopenta[f]indazol-5-yl]ethyl}benzamide] showed a pKi of 8.60.
In the case of `CC[C@]12Cc3cnn(-c4ccc(F)cc4)c3C=C1CC[C@@]2(O)CCc1cncc(F)c1` [Example 21, (4aS,5R)-4a-Ethyl-1-(4-fluorophenyl)-5-[2-(5-fluoropyridin-3-yl)ethyl]-1,4,4a,5,6,7-hexahydrocyclopenta[f]indazol-5-ol], the pKi was 8.98.
`CC[C@]12Cc3cnn(-c4ccc(F)cc4)c3C=C1CC[C@@]2(O)CCc1ccccc1CCC(N)=O` [Example 22, 3-(2-{2-[(4aS,5R)-4a-Ethyl-1-(4-fluorophenyl)-5-hydroxy-1,4,4a,5,6,7-hexahydrocyclopenta[f]indazol-5-yl]ethyl}phenyl)propanamide] showed a pKi of 8.83.
For `NC(=O)c1ccccc1CC[C@]1(O)CCC2=Cc3c(cnn3-c3ccc(F)cc3)C[C@@]21C1CC1` [Example 23, 2-{2-[(4aR,5R)-4a-Cyclopropyl-1-(4-fluorophenyl)-5-hydroxy-1,4,4a,5,6,7-hexahydrocyclopenta[f]indazol-5-yl]ethyl}benzamide], the pKi was 8.74.
In the case of `NS(=O)(=O)c1ccccc1CC[C@]1(O)CCC2=Cc3c(cnn3-c3cccnc3)C[C@@]21C1CC1` [Example 24, 2-{2-[(4aR,5R)-4a-Cyclopropyl-5-hydroxy-1-(pyridin-3-yl)-1,4,4a,5,6,7-hexahydrocyclopenta[f]indazol-5-yl]ethyl}benzenesulfonamide], the pKi was 8.66.
Compound `CC[C@]12Cc3cnn(-c4ccc(F)cc4)c3C=C1CC[C@@]2(O)CCc1ccccc1C(O)C(N)=O` (stereo partly drawn) [Example 25, 2-(2-{2-[(4aS,5R)-4a-Ethyl-1-(4-fluorophenyl)-5-hydroxy-1,4,4a,5,6,7-hexahydrocyclopenta[f]indazol-5-yl]ethyl}phenyl)-2-hydroxyacetamide] has a pKi of 8.49.
For `CC[C@]12Cc3cnn(-c4ccc(F)cc4)c3C=C1CC[C@@]2(O)CCc1ccccc1C(O)C(N)=O` (stereo partly drawn) [Example 26, 2-(2-{2-[(4aS,5R)-4a-Ethyl-1-(4-fluorophenyl)-5-hydroxy-1,4,4a,5,6,7-hexahydrocyclopenta[f]indazol-5-yl]ethyl}phenyl)-2-hydroxyacetamide], the pKi was 8.42.
In the case of `N#Cc1ccccc1CC[C@]1(O)CCC2=Cc3c(cnn3-c3ccccc3)C[C@@]21C1CC1` [Example 27, 2-{2-[(4aR,5R)-4a-Cyclopropyl-5-hydroxy-1-phenyl-1,4,4a,5,6,7-hexahydrocyclopenta[f]indazol-5-yl]ethyl}benzonitrile], the pKi was 9.00.
Work on `N#Cc1c(F)cccc1CC[C@]1(O)CCC2=Cc3c(cnn3-c3ccccc3)C[C@@]21C1CC1` [Example 28, 2-{2-[(4aR,5R)-4a-Cyclopropyl-5-hydroxy-1-phenyl-1,4,4a,5,6,7-hexahydrocyclopenta[f]indazol-5-yl]ethyl}-6-fluorobenzonitrile] yielded a pKi of 8.91.
Work on `NC(=O)c1ccccc1CC[C@]1(O)CCC2=Cc3c(cnn3-c3ccccc3)C[C@@]21C1CC1` [Example 29, 2-{2-[(4aR,5R)-4a-Cyclopropyl-5-hydroxy-1-phenyl-1,4,4a,5,6,7-hexahydrocyclopenta[f]indazol-5-yl]ethyl}benzamide] yielded a pKi of 8.64.
Compound `N#Cc1ccccc1CC[C@]1(O)CCC2=Cc3c(cnn3-c3cccnc3)C[C@@]21C1CC1` [Example 30, 2-{2-[(4aR,5R)-4a-Cyclopropyl-5-hydroxy-1-(pyridin-3-yl)-1,4,4a,5,6,7-hexahydrocyclopenta[f]indazol-5-yl]ethyl}benzonitrile] has a pKi of 8.87.
In the case of `N#Cc1cccnc1CC[C@]1(O)CCC2=Cc3c(cnn3-c3ccc(F)cc3)C[C@@]21C1CC1` [Example 31, 2-{2-[(4aR,5R)-4a-Cyclopropyl-1-(4-fluorophenyl)-5-hydroxy-1,4,4a,5,6,7-hexahydrocyclopenta[f]indazol-5-yl]ethyl}pyridine-3-carbonitrile], the pKi was 8.80.
`O[C@@]1(CCc2cc(C(F)(F)F)ccn2)CCC2=Cc3c(cnn3-c3ccc(F)cc3)C[C@@]21C1CC1` [Example 32, (4aR,5R)-4a-Cyclopropyl-1-(4-fluorophenyl)-5-{2-[4-(trifluoromethyl)pyridin-2-yl]ethyl}-1,4,4a,5,6,7-hexahydrocyclopenta[f]indazol-5-ol] showed a pKi of 8.65.
Work on `CC[C@]12Cc3cnn(-c4ccc(F)cc4)c3C=C1CC[C@@]2(O)CCc1cc(C)ccn1` [Example 33, (4aS,5R)-4a-Ethyl-1-(4-fluorophenyl)-5-[2-(4-methylpyridin-2-yl)ethyl]-1,4,4a,5,6,7-hexahydrocyclopenta[f]indazol-5-ol] yielded a pKi of 8.63.
`CC[C@]12Cc3cnn(-c4ccc(F)cc4)c3C=C1CC[C@@]2(O)CCc1cc(C(F)(F)F)ccn1` [Example 34, (4aS,5R)-4a-Ethyl-1-(4-fluorophenyl)-5-{2-[4-(trifluoromethyl)pyridin-2-yl]ethyl}-1,4,4a,5,6,7-hexahydrocyclopenta[f]indazol-5-ol] showed a pKi of 8.65.
`N#Cc1ccnc(CC[C@]2(O)CCC3=Cc4c(cnn4-c4ccc(F)cc4)C[C@@]32C2CC2)c1` [Example 35, 2-{2-[(4aR,5R)-4a-Cyclopropyl-1-(4-fluorophenyl)-5-hydroxy-1,4,4a,5,6,7-hexahydrocyclopenta[f]indazol-5-yl]ethyl}pyridine-4-carbonitrile] gave a pKi of 8.70.
With `Cc1ccnc(CC[C@]2(O)CCC3=Cc4c(cnn4-c4ccc(F)cc4)C[C@@]32C2CC2)c1` [Example 36, (4aR,5R)-4a-Cyclopropyl-1-(4-fluorophenyl)-5-[2-(4-methylpyridin-2-yl)ethyl]-1,4,4a,5,6,7-hexahydrocyclopenta[f]indazol-5-ol] the pKi was 8.79.
In the case of `CC[C@]12Cc3cnn(-c4ccc(F)cc4)c3C=C1CC[C@@]2(O)CCc1cccc(OC)c1C(N)=O` [Example 37, 2-{2-[(4aS,5R)-4a-Ethyl-1-(4-fluorophenyl)-5-hydroxy-1,4,4a,5,6,7-hexahydrocyclopenta[f]indazol-5-yl]ethyl}-6-methoxybenzamide], the pKi was 8.69.

From patent US20120214847A1, “2-[1-PHENYL-5-HYDROXY-4a-SUBSTITUTED-HEXAHYDROCYCLOPENTA[F]INDAZOL-5-YL]ETHYL PHENYL DERIVATIVES AS GLUCOCORTICOID RECEPTOR LIGANDS” (Merck Sharp & Dohme Corp., priority 2009, published 2012)
